These results are taken from patent publication US5852001A, “Method and compounds for inhibition of ribonucleases” (The Endowment for Research in Human Biology, priority 1996, dated 1998).

Test [1] deals with T1, RNase A (Bos taurus, UniProt P61823).
T1 sequence (P61823 27-150): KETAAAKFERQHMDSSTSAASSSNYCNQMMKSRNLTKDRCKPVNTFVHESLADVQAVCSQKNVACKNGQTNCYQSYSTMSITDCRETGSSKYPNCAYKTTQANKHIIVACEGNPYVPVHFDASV
It is filed as biochemical, bovine. The following applies: for pKi: 25° C.
Method: Inhibition was assessed from the dependence of 1/v0 on [I], where v0 represents the velocity measured during the initial 5-10% of the enzymatic reaction and [I] is the inhibitor concentration. Since the substrate concentration used in these assays is well below Km, the -[I] intercept of such a plot should closely approximate Ki for simple inhibition mechanisms.

In test [2] the target is T1, RNase A. Put plainly: Inhibition of RNase A activity toward CpA, HPLC method.
Method: Assays were performed in 60 μl of 0.2M Mes (pH 5.9) containing 50 μg/ml nuclease-free bovine serum albumin (obtained from Worthington), 20 μM CpA, and 23-320 pM RNase A. After 14-96 minutes of incubation at 25° C., substrate and products were quantitated by C18 /HPLC with a 20 minute linear gradient from 0 to 5.6% acetonitrile in 0.1% trifluoroacetic acid at a flow rate of 1.5 ml/min recording absorbance at 254 nm. Values of Km /kcat were then calculated (according to the method of Shapiro et al., 1986, Biochemistry 25:7255-7264) and plotted vs. the inhibitor concentration [I]. The Ki value is the -[I] intercept of a three- or four-point plot of Km /kcat, vs. [I] and was obtained by linear regression.
In another test the target is hRNase-2 (Homo sapiens, UniProt P10153). Put plainly: Inhibition of human ribonuclease hRNase-2, method of Example IX. It is filed as biochemical.
Sequence of hRNase-2 (P10153 28-161): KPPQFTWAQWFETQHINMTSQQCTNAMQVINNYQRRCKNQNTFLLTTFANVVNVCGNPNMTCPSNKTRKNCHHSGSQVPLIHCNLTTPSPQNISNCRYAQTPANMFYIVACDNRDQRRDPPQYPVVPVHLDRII
Test [3] concerns the target T1, RNase A. Put plainly: RNA protection assay (tRNA, agarose gel electrophoresis). Type of test: biochemical, bovine. As to conditions: 0.5 mM inhibitor, 0.2 nM RNase A, pH 7.0, 20 minutes, 25° C. How it is done: 3 μg of tRNA were incubated in 30 μl of 20 mM Hepes, 130 mM NaCl (pH 7.0) containing 30 μg/ml bovine serum albumin, 0.2 nM RNase A and the inhibitor. After 20 minutes of incubation at 25° C., the reaction mixture was analyzed by agarose gel electrophoresis and staining with ethidium bromide. This assay was chosen since a single endonucleolytic cleavage in a polymeric RNA molecule can produce a large variation of the molecular size which can be easily detected by agarose gel electrophoresis.

Test [4] addresses T1, RNase A. As to conditions: pH 7; read-out: inhibition constant Ki (reported); cited from earlier work.
For another test, the target named is T2, hRNase-4 (Homo sapiens, UniProt P34096).
T2 sequence (P34096 29-147): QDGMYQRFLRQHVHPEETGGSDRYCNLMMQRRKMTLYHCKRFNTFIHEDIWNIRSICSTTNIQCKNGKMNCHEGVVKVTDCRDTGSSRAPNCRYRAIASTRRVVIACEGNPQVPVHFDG
Put plainly: Inhibition of human ribonuclease hRNase-4, method of Example IX.

Where [5] appears, read: 0.2M Mes pH 5.9, 75 μM CpG, read-out: Ki at indicated pH, pH 5.9.
The mark [6] stands for this setting: 0.2M Hepes pH 7.0, 75 μM CpG, read-out: Ki at indicated pH, pH 7.
[7] abbreviates: 0.2M Hepes pH 8.0, 75 μM CpG, read-out: Ki at indicated pH, pH 8.

pKi: −log10 of the molar value. Like-named read-outs stand apart in the source and are kept apart here.

Method for hRNase-2: (§1) Assays were performed at 25° C. with the dinucleotide cytidylyl-(3',5')-guanosine (75 μM) as substrate in 0.2M Mes (pH 5.9), 0.2M Hepes (pH 7.0), or 0.2M Hepes (pH 8.0), containing 10 μg/ml bovine serum albumin. The decrease in absorbance at 286 nm following the addition of RNase A was continuously monitored. Inhibition was assessed from the dependence of 1/v0 on [I], where v0 represents the velocity measured during the initial 5-10% of the enzymatic reaction and [I] is the inhibitor concentration. Since the substrate concentration used in these assays is well below Km, the -[I] intercept of such a plot should closely approximate Ki for simple inhibition mechanisms.
Method for hRNase-4: as §1

For orientation: pKi means the Ki on a negative log10 scale, so that one unit is a factor of ten. Consider `Nc1ncnc2c1ncn2[C@@H]1O[C@H](COP(=O)(O)OP(=O)(O)O[C@H]2C[C@H](n3ccc(=O)[nH]c3=O)O[C@@H]2CO)[C@@H](O)[C@H]1OP(=O)(O)O` [dUppA2'p, 2'-deoxyuridine-(3'-Pβ)-5'-diphosphoadenosine-2'-phosphate], for which the negative-log Ki (pKi) on RNase A [1] (setting [5]) is 6.18. The “fold higher Ki than that for dUppAp” value on RNase A [1] (pH 5.9) was 5 fold.

Consider `Cc1cn([C@H]2C[C@H](OP(=O)(O)OC[C@H]3O[C@@H](n4cnc5c(N)ncnc54)C[C@@H]3O)[C@@H](CO)O2)c(=O)[nH]c1=O` [TpdA, thymidylyl-(3'-5')-2'-deoxyadenosine], for which the pKi on RNase A [2] is 2.89.

Consider `Nc1ncnc2c1ncn2[C@@H]1O[C@H](COP(=O)(O)OP(=O)(O)O[C@H]2C[C@H](n3ccc(=O)[nH]c3=O)O[C@@H]2CO)[C@@H](OP(=O)(O)O)[C@H]1O` [dUppAp, 2'-deoxyuridine-(3'-Pβ)-5'-diphosphoadenosine-3'-phosphate], for which the negative logarithm of the Ki (pKi) is 5.96 at RNase A [1] (setting [6]), 4.36 on RNase A [1] (setting [7]) and 6.89 on RNase A [1] (setting [5]).

Regarding `Nc1ncnc2c1ncn2[C@@H]1O[C@H](COP(=O)(O)OP(=O)(O)O)[C@@H](OP(=O)(O)O)[C@H]1O` [ppAp, 5'-diphosphoadenosine-3'-phosphate], the negative logarithm of the Ki (pKi) was 5.89 at RNase A [1] (setting [6]); 3.66 on RNase A [1] (setting [7]); 6.62 at RNase A [1] (setting [5]); 6.60 at hRNase-2; 6.62 on RNase A [2]. Besides, the “protection of tRNA from the catalytic action of RNase A” value (shortened to “protection of tRNA”) on RNase A [3] is “fully protecting”.

For the compound `Cc1cn([C@H]2C[C@H](OP(=O)(O)OP(=O)(O)OC[C@H]3O[C@@H](n4cnc5c(N)ncnc54)C[C@@H]3O)[C@@H](CO)O2)c(=O)[nH]c1=O` [TppdA, thymidine-(3'-Pβ)-5'-diphospho-2'-deoxyadenosine], the negative-log Ki (pKi) on RNase A [1] (setting [5]) was 5.46.

`Nc1ncnc2c1ncn2[C@@H]1O[C@H](COP(=O)(O)O)[C@@H](OP(=O)(O)O)[C@H]1O` [pAp, adenosine 3',5'-diphosphate]: the negative-log Ki (pKi) at RNase A [2] is 5.25.

With `Nc1ccn([C@@H]2O[C@H](CO)[C@@H](O)[C@H]2OP(=O)(O)O)c(=O)n1` [2'-CMP, Cytidine 2'-monophosphate], the pKi on RNase A [4] is 3.83; on RNase A [2], 5.51. Further, on RNase A [3], the “protection of tRNA” value is listed as “partial protection”.

uridine-vanadate: the pKi on RNase A [4] was 5.00. Besides, on RNase A [3], the “protection of tRNA” value is “partial protection”.

With `Nc1ncnc2c1ncn2[C@@H]1O[C@H](COP(=O)(O)OP(=O)(O)O[C@H]2C[C@H](n3ccc(=O)[nH]c3=O)O[C@@H]2COP(=O)(O)O)[C@@H](OP(=O)(O)O)[C@H]1O` [pdUppAp, 5'-phospho-2'-deoxyuridine-(3'-Pβ)-5'-diphosphoadenosine-3'-phosphate], the negative-log Ki (pKi) at RNase A [1] (setting [6]) is 6.68; at RNase A [1] (setting [7]), 4.66; at RNase A [1] (setting [5]) it was 7.46; at hRNase-4, 6.55; on hRNase-2, 6.66. The “factor by which RNase A inhibition constant is lower than that for ppAp” value at RNase A [1] (pH 5.9) was 6.9; on RNase A [1] (pH 7) it was 6.2; at RNase A [1] (pH 8), 9.9.

Regarding `Cc1cn([C@H]2C[C@H](OP(=O)(O)OP(=O)(O)OC[C@H]3O[C@@H](n4cnc5c(N)ncnc54)[C@H](O)[C@@H]3OP(=O)(O)O)[C@@H](COP(=O)(O)O)O2)c(=O)[nH]c1=O` [pTppAp, 5'-phosphothymidine-(3'-Pβ)-5'-diphosphoadenosine-3'-phosphate], the pKi on RNase A [1] (setting [6]) was 6.74; on RNase A [1] (setting [7]), 4.55; on RNase A [1] (setting [5]), 7.28; on hRNase-4 it was 6.57; at hRNase-2 (pH 5.9, read-out: Ki at pH 5.9, hRNase-2), 6.30. Besides, the “factor by which RNase A inhibition constant is lower than that for ppAp” value at RNase A [1] (pH 5.9) worked out at 4.6; on RNase A [1] (pH 7), 7.2; at RNase A [1] (pH 8) it was 7.8.
